The values that follow are results of earlier work, collected in patent publication US20060013877A1 (Nanohybrid Co., Ltd., priority 2002, published 2006).

`CCC(C)n1ncn(-c2ccc(N3CCN(c4ccc(OC[C@H]5CO[C@](Cn6cncn6)(c6ccc(Cl)cc6Cl)O5)cc4)CC3)cc2)c1=O` (mixture of isomers) [itraconazole, (±)-cis-4-[4-[4-[4-[[2-(2,4-dichlorophenyl)-2-(1H-1,2,4-triazole-1-ylmethyl)-1,3-dioxoran-4-yl]methoxy]phenyl]-1-piperazinyl]phenyl]-2,4-dihydro-2-(1-methylpropyl)-3H-1,2,4-triazole-3-one]: the water solubility entry is listed as “about 1 mg/ml”.
